Source: patent publication US12374421B2, “Bioinformatic processes for determination of peptide binding” (priority 2013, dated 2025)

Columns and labels:
RL9-pulsed splenocytes = test system: RL9-pulsed splenocytes; design: species or system mice; settings: mouse, in vivo
MHC I molecules = settings: in vivo; cited from earlier work

RYCINSASL (SEQ ID NO: 28419) [RL9]
response pattern after immunization (RL9-pulsed splenocytes): protective response pattern
MHC I presentation (MHC I molecules): presented on MHC I molecules
